Measured values taken from ChEMBL document CHEMBL3745650, “Anti-inflammatory properties of quebecol and its derivatives” (Bioorg Med Chem Lett, 2016).

Columns and labels:
[1] = Antiinflammatory activity in PMA-differentiated human U937 cells assessed as inhibition of LPS-stimulated IL-6 secretion at 250 uM preincubated for 2 hrs followed by LPS-stimulation measured after 24 hrs by ELISA relative to control; assay type: functional; settings: U-937
[2] = Antiinflammatory activity in PMA-differentiated human U937 cells assessed as inhibition of LPS-stimulated IL-8 secretion at 62.5 uM preincubated for 2 hrs followed by LPS-stimulation measured after 24 hrs by ELISA relative to control; assay type: functional; settings: U-937
[3] = Antiinflammatory activity in PMA-differentiated human U937 cells assessed as inhibition of LPS-stimulated IL-1beta secretion at 500 uM preincubated for 2 hrs followed by LPS-stimulation measured after 24 hrs by ELISA relative to control; assay type: functional; settings: U-937
[4] = Antiinflammatory activity in PMA-differentiated human U937 cells assessed as inhibition of LPS-stimulated IL-1beta secretion at 125 uM preincubated for 2 hrs followed by LPS-stimulation measured after 24 hrs by ELISA relative to control; assay type: functional; settings: U-937
[5] = Antiinflammatory activity in PMA-differentiated human U937 cells assessed as inhibition of LPS-stimulated IL-1beta secretion at 250 uM preincubated for 2 hrs followed by LPS-stimulation measured after 24 hrs by ELISA relative to control; assay type: functional; settings: U-937
[6] = Antiinflammatory activity in PMA-differentiated human U937 cells assessed as inhibition of LPS-stimulated TNF-alpha secretion at 62.5 uM preincubated for 2 hrs followed by LPS-stimulation measured after 24 hrs by ELISA relative to control; assay type: functional; settings: U-937
[7] = Antiinflammatory activity in PMA-differentiated human U937 cells assessed as inhibition of LPS-stimulated IL-8 secretion at 125 uM preincubated for 2 hrs followed by LPS-stimulation measured after 24 hrs by ELISA relative to control; assay type: functional; settings: U-937
[8] = Antiinflammatory activity in PMA-differentiated human U937 cells assessed as inhibition of LPS-stimulated TNF-alpha secretion at 250 uM preincubated for 2 hrs followed by LPS-stimulation measured after 24 hrs by ELISA relative to control; assay type: functional; settings: U-937
[9] = Antiinflammatory activity in PMA-differentiated human U937 cells assessed as inhibition of LPS-stimulated IL-6 secretion at 125 uM preincubated for 2 hrs followed by LPS-stimulation measured after 24 hrs by ELISA relative to control; assay type: functional; settings: U-937
[10] = Antiinflammatory activity in PMA-differentiated human U937 cells assessed as inhibition of LPS-stimulated IL-8 secretion at 250 uM preincubated for 2 hrs followed by LPS-stimulation measured after 24 hrs by ELISA relative to control; assay type: functional; settings: U-937
[11] = Antiinflammatory activity in human U937-3xkB-luc cells assessed as inhibition of LPS-induced NFkappaB activation at 5 uM preincubated for 30 mins followed by LPS-stimulation measured after 6 hrs by luciferase assay relative to control; assay type: functional; settings: U-937
U-937 [12] = experiment: (§1) Antiinflammatory activity in PMA-differentiated human U937 cells assessed as inhibition of LPS-stimulated IL-6 secretion preincubated for 2 hrs followed by LPS-stimulation measured after 24 hrs by ELISA relative to control; assay type: functional
[13] = Antiinflammatory activity in PMA-differentiated human U937 cells assessed as inhibition of LPS-stimulated IL-1beta secretion at 62.5 uM preincubated for 2 hrs followed by LPS-stimulation measured after 24 hrs by ELISA relative to control; assay type: functional; settings: U-937
[14] = Antiinflammatory activity in PMA-differentiated human U937 cells assessed as inhibition of LPS-stimulated IL-6 secretion at 500 uM preincubated for 2 hrs followed by LPS-stimulation measured after 24 hrs by ELISA relative to control; assay type: functional; settings: U-937
[15] = Antiinflammatory activity in human U937-3xkB-luc cells assessed as inhibition of LPS-induced NFkappaB activation at 100 uM preincubated for 30 mins followed by LPS-stimulation measured after 6 hrs by luciferase assay relative to control; assay type: functional; settings: U-937
[16] = Antiinflammatory activity in PMA-differentiated human U937 cells assessed as inhibition of LPS-stimulated TNF-alpha secretion at 125 uM preincubated for 2 hrs followed by LPS-stimulation measured after 24 hrs by ELISA relative to control; assay type: functional; settings: U-937
[17] = Antiinflammatory activity in PMA-differentiated human U937 cells assessed as inhibition of LPS-stimulated IL-6 secretion at 62.5 uM preincubated for 2 hrs followed by LPS-stimulation measured after 24 hrs by ELISA relative to control; assay type: functional; settings: U-937
U-937 [18] = experiment: (§2) Antiinflammatory activity in PMA-differentiated human U937 cells assessed as inhibition of LPS-stimulated TNF-alpha secretion preincubated for 2 hrs followed by LPS-stimulation measured after 24 hrs by ELISA relative to control; assay type: functional
[19] = Antiinflammatory activity in PMA-differentiated human U937 cells assessed as inhibition of LPS-stimulated TNF-alpha secretion at 500 uM preincubated for 2 hrs followed by LPS-stimulation measured after 24 hrs by ELISA relative to control; assay type: functional; settings: U-937
[20] = Cytotoxicity against PMA-differentiated human U937 macrophages assessed as reduction in cell viability after 24 hrs by MTT assay; assay type: cell-based; settings: u-937, 24 h
[21] = Antiinflammatory activity in PMA-differentiated human U937 cells assessed as inhibition of LPS-stimulated IL-8 secretion at 500 uM preincubated for 2 hrs followed by LPS-stimulation measured after 24 hrs by ELISA relative to control; assay type: functional; settings: U-937
[22] = Antiinflammatory activity in human U937-3xkB-luc cells assessed as inhibition of LPS-induced NFkappaB activation at 20 uM preincubated for 30 mins followed by LPS-stimulation measured after 6 hrs by luciferase assay relative to control; assay type: functional; settings: U-937
[23] = Antiinflammatory activity in PMA-differentiated human U937 cells assessed as inhibition of LPS-stimulated IL-1beta secretion preincubated for 2 hrs followed by LPS-stimulation measured after 24 hrs by ELISA relative to control; assay type: functional, U-937
[24] = as §1; assay type: functional, U-937
[25] = Antiinflammatory activity in human U937-3xkB-luc cells assessed as inhibition of LPS-induced NFkappaB activation preincubated for 30 mins followed by LPS-stimulation measured after 6 hrs by luciferase assay relative to control; assay type: functional, U-937
[26] = as §2; assay type: functional, U-937
[27] = Antiinflammatory activity in PMA-differentiated human U937 cells assessed as inhibition of LPS-stimulated IL-8 secretion preincubated for 2 hrs followed by LPS-stimulation measured after 24 hrs by ELISA relative to control; assay type: functional, U-937

SMILES | inhibition at 250 µM [1] [%] | inhibition at 62.5 µM [2] [%] | inhibition at 500 µM [3] [%] | inhibition at 125 µM [4] [%] | inhibition at 250 µM [5] [%] | inhibition at 62.5 µM [6] [%] | inhibition at 125 µM [7] [%] | inhibition at 250 µM [8] [%] | inhibition at 125 µM [9] [%] | inhibition at 250 µM [10] [%] | inhibition at 5 µM [11] [%] | inhibition at 62.5 µM [13] [%] | inhibition at 500 µM [14] [%] | inhibition at 100 µM [15] [%] | inhibition at 125 µM [16] [%] | inhibition at 62.5 µM [17] [%] | inhibition at 500 µM [19] [%] | Activity [20] [µM] | inhibition at 500 µM [21] [%] | inhibition at 20 µM [22] [%] | other results
COc1cc(C(CO)C(c2ccc(O)c(OC)c2)c2ccc(O)c(OC)c2)ccc1O (stereo not drawn) | 62.6 | 0 | 0.9 | 25.1 | 9.4 | 0 | 0.2 | 17.5 | 45.5 | 0 | 11.2 | 1.1 | 84.3 | 43.4 | 19.8 | 1.1 | 60 | 500 | 0.3 | 13.5 | inhibition (U-937 [12]): Dose-dependent effect; inhibition (U-937 [18]): Dose-dependent effect
COc1cc(CC(=O)O)ccc1O [HOMOVANILLIC ACID] | 0 | – | 3.6 | 5.2 | 5.7 | – | 0 | 0 | 0 | 0 | 24 | – | 0 | 22.9 | 0 | – | 0 | > 1000 | 0 | 16.3 | –
CCOC(=O)Cc1ccc(O)c(OC)c1 | 0 | – | 0 | 2.7 | 5.7 | – | 0 | 1.1 | 0 | 0 | 13.6 | – | 0 | 14.6 | 0.1 | – | 6.9 | > 1000 | 0 | 21.8 | –
COc1cc(C(O)C(=O)O)ccc1O (stereo not drawn) | 0 | – | 7.2 | 7.4 | 8 | – | 0 | 4.6 | 0 | 0 | 0 | – | 0 | 16.3 | 0 | – | 0 | > 1000 | 0 | 5.7 | –
COc1cc(Cc2ccc(O)c(OC)c2)ccc1O | 62.3 | – | 49.2 | 3 | 33.4 | – | 7.1 | 15 | 4.3 | 15 | 11 | – | 95.3 | 43.1 | 7.6 | – | 72.2 | 500 | 26.9 | 28.9 | –
CCOC(=O)C(=C(c1ccc(O)c(OC)c1)c1ccc(O)c(OC)c1)c1ccc(O)c(OC)c1 | 99.9 | 22.7 | 83.9 | 26.2 | 85.2 | 15.9 | 99.5 | 100 | 97.2 | 99.7 | 12.8 | 0 | 99.9 | 79.9 | 92.3 | 27.3 | 100 | 62.5 | 99.9 | 15.9 | –
Cc1ccc(S(=O)(=O)/C=C/C#N)cc1 | – | – | – | – | – | – | – | – | – | – | – | – | – | – | – | – | – | – | – | – | inhibition (INH) [23]: 95.9%; inhibition (INH) [24]: 99.2%; inhibition (INH) [25]: 99.3%; inhibition (INH) [26]: 99.5%; inhibition (INH) [27]: 99.1%
CCOC(=O)C(c1ccc(O)c(OC)c1)C(c1ccc(O)c(OC)c1)c1ccc(O)c(OC)c1 (stereo not drawn) | 99.8 | 0 | 91.4 | 1.2 | 10.9 | 8.5 | 94.9 | 100 | 89.9 | 95 | 24 | 0 | 99.9 | 74.7 | 15.7 | 4.8 | 100 | 125 | 99.9 | 31.2 | –
CCOC(=O)C(O)c1ccc(O)c(OC)c1 (stereo not drawn) | 0 | – | 0 | 4 | 0 | – | 0 | 0 | 0 | 0 | 16.4 | – | 0 | 0 | 0 | – | 0 | > 1000 | 0 | 6.5 | –
COc1cc(CCO)ccc1O | 0 | – | 11.3 | 24.4 | 17.4 | – | 0 | 5.2 | 0 | 0 | 0 | – | 0 | 8.3 | 6 | – | 0 | > 1000 | 0 | 2.6 | –
